Measured values reported in patent publication EP3027627B1, “2-[5-[N-(4-FLUOROPHENYL)CARBAMOYL]PYRIMIDIN-2-YLSULFANYLMETHYL]-4-(TRIFLUOROMETHOXY)PHENYL]BORONIC ACID” (Syntrix Biosystems Inc., priority 2013, dated 2015).

What was measured:
CXCR2 [1] = target: T1, CXCR2 (Homo sapiens, UniProt P25025); experiment: Wash-resistant inhibition of CXCL8-mediated calcium flux after inhibitor washout, CXCR2 RBL cells; type: cell-based; conditions: RBL cells stably transfected with CXCR2; 30 minutes incubation at 37°C with 0.4, 2, 10 µM, then washout; time points up to 12 h
T1 construct: expressed in transfected cells; host or cells: RBL cells (stably transfected)
T1 sequence (P25025 1-360): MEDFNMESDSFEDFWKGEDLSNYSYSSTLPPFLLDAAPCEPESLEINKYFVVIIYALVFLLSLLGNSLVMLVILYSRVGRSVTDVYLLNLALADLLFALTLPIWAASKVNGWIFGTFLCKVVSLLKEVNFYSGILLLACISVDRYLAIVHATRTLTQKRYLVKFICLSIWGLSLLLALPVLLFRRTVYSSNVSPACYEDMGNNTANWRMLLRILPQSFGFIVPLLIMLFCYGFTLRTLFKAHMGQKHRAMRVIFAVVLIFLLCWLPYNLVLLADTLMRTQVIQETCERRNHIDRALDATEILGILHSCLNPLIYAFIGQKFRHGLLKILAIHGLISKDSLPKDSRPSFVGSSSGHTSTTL
Method: (§1) SX-682 contains a boronic acid moiety that has the potential to form a transient covalent linkage with hydroxyl-bearing amino acid side chains in the binding site of its protein target.
(§2) In order to test this hypothesis, RBL cells (10^7 cells/mL) stably transfected with either CXCR1 or CXCR2 were (1) incubated with SX-682 at various concentrations for 30 minutes at 37°C, (2) washed and resuspended in assay buffer (RPMI/2% serum) at room temperature, and (3) assayed for CXCL8-mediated calcium response at time points up to 12 h after inhibitor washout. The concentrations of SX-682 tested were 0 (positive control), 0 (negative control), 0.4, 2, and 10 µM. At 30 minutes before each time point, a 56.25 µL aliquot of the cells were removed and loaded for 30 minutes at room temperature in the dark with FLIPR-3 reagent (262.5 µl per tube). Following FLIPR-3 incubation, cells were assayed for CXCL8 mediated intracellular calcium release as described in Pharmacology Example 1.

CXCR1 [2] = target: T2, CXCR1 (Homo sapiens, UniProt P25024); experiment: Inhibition of CXCL8-mediated intracellular calcium release, RBL cells stably transfected with CXCR1; type: cell-based; conditions: CXCL8 25 nM, mean ± SE, n = 4
T2 construct: expressed in transfected cells; host or cells: RBL cells (stably transfected)
T2 sequence (P25024 1-350): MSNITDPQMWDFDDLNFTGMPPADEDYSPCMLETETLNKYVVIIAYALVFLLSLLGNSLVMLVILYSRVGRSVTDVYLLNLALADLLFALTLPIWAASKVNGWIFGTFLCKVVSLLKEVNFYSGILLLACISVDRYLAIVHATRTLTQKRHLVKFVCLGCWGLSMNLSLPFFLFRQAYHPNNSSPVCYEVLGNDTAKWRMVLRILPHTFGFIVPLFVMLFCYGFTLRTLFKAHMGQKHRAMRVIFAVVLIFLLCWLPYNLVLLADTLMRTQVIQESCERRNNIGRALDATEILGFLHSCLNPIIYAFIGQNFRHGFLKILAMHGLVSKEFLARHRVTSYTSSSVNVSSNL
Method: (§3) Briefly, cells (either isolated human neutrophils or RBL cells stably transfected with either CXCR1 or CXCR2) were suspended in HBSS^- (without Ca^2+ and Mg^2+) containing 10 mM HEPES and FLIPR Calcium 3 dye (3.1 x 10^7 cells in total volume 1.7 mL). Cells were aliquoted (200 µL of the cell suspension per tube, 8 tubes total) and 2 µL of the designated compound (with appropriate dilutions) were added to each of 6 tubes. As controls, 2 µL of DMSO (1% final concentration) were added to 2 other tubes. Cells were incubated for 30 min at 37 °C. After dye loading, tubes were centrifuged at 6,000 rpm for 1 min, supernatant was removed and the cell pellet was re-suspended in 200 µL of HBSS^+ (with Ca^2+ and Mg^2+) containing 10 mM HEPES. […] The cell suspension was aliquoted into a 96-well Reading Plate (Coming) in a volume of 90 µL (10^5 cells/well). […] After 15 sec of reading the basal level of fluorescence by FlexStation II, 10 µL of CXCL8 or HBSS^-were automatically transferred from the Compound Plate into the Reading Plate (final concentration of CXCL8 was 25 nM). Changes in fluorescence were monitored (λex = 485 nm, λem = 525 nm) every 5 s for 240 to 500 s at room temperature.
(§4) The maximum change in fluorescence, expressed in arbitrary units over baseline (Max-Min), was used to determine the CXCL8 response. […]

[3] = tested on: isolated human neutrophils; experiment: Inhibition of CXCL8-mediated intracellular calcium release, isolated human neutrophils; type: cell-based; conditions: Neutrophil; human neutrophils (Human PMNs); CXCL8 25 nM; mean ± SE, n = 4
Method: as §3, §4

neutrophils [4] = experiment: Ozone rat model of pulmonary inflammation (neutrophil influx into BALF); type: in vivo, Sprague-Dawley rats; conditions: for influx of neutrophils into the lungs (BALF) as compared to control rats treated with vehicle only: 1 mg/kg intravenously once at t = 0, 1 ppm ozone for 4 hours, BALF at t = 24 hours, n = 4 per cohort
Method: SX-682 was assayed in an in vivo rat model of pulmonary inflammation. Activity in this model of pulmonary inflammation provides evidence that supports the use of SX-682 in the treatment of a number of pulmonary inflammatory diseases, including chronic obstructive pulmonary disease (COPD) and bronchopulmonary dysplasia (BPD). In this experiment, Sprague-Dawley rats (n = 4 per cohort) were dosed intravenously only once at t = 0 with either vehicle control (dimethylformamide/PEG400/saline, 40:40:20), positive inhibitor control (SX-576, 1 mg/kg) or the test compound (SX-682, 1 mg/kg). The rats were then placed in air (negative exposure group; vehicle control only) or 1 ppm ozone (positive exposure group; vehicle control, positive inhibitor control SX-576, and test compound SX-682) for 4 hours. The rats were then sacrificed at t = 24 hours, and the bronchoalveolar lavage fluid (BALF) was collected. The cells were spun down, stained with Wright-Giemsa and counted. In the negative exposure group, no neutrophils were observed when stained. In the ozone exposed rats treated with vehicle however, there was a brisk influx of neutrophils of approximately 14,000 per mL of BALF (see Figure 4).

CXCR2 [5] = target: T1, CXCR2; experiment: Inhibition of CXCL8-mediated intracellular calcium release, RBL cells stably transfected with CXCR2; type: cell-based; conditions: CXCL8 25 nM, mean ± SE, n = 4
Method: as §3, §4

[6] = Stability in human plasma; type: in vitro ADME
Method: The in vitro stability of SX-682 and the cogeners of Metabolic Stability Example 1 (Figure 5) were further studied in human plasma. The reactions were initiated by the addition of 5 µL of a 500 µM DMSO stock solution to 495 µL of preheated plasma solution to yield a final concentration of 5 µM. The assays were performed in a heat block at 37°C and conducted in duplicate. Samples (50 µL) were taken at 0, 30, 60, 120, 240 min and added to 150 µL acetonitrile in order to deproteinize the plasma. The samples were subjected to vortex mixing for 1 min and then centrifugation for 15 min at 14,000 rpm. The clear supernatants were analyzed by LC-MS.
The in vitro plasma half life (t½) was calculated using the expression t½ = ln(2)/b, where b is the slope found in the linear fit of the natural logarithm of the fraction remaining of the parent compound vs. incubation time.

[7] = Stability in human liver microsomes (NADPH-dependent); type: in vitro ADME
Source text: Liver microsomes are an in vitro model for in vivo metabolism and elimination of a drug by the liver (and gut) cytochrome P450 system. A compound's stability in liver microsomes in vitro is predictive of its metabolism and elimination in vivo. We examined the stability of SX-682 in liver microsomes together with several other cogeners to quantify the microsomal stability of SX-682 and identify potential structure-activity relationships (SAR) predictive of stability or instability (see Figure 5).
The compounds were incubated in duplicate with human liver microsomes at 37°C. The reaction contained microsomal protein in 100 mM potassium phosphate, 2 mM NADPH, 3 mM MgCl2, pH 7.4. A control was run for each compound omitting NADPH to detect NADPH-independent degradation. An aliquot was removed from each experimental and control reaction at 0, 10, 20, 30, and 60 minutes and mixed with an equal volume of ice-cold Stop Solution (0.3% acetic acid in acetonitrile containing haloperidol, diclofenac, or other internal standard). Stopped reactions were incubated for at least ten minutes at -20°C, and an additional volume of water was added. The samples were centrifuged to remove precipitated protein, and the supernatants were analyzed by LCMS/MS to quantitate the remaining compound. Data were converted to percent remaining by dividing by the time zero concentration value. Data were fit to a first-order decay model to determine half-life. Intrinsic clearance was calculated from the half-life and the protein concentrations: CLint = ln(2)/(t½ [microsomal protein]).

CXCR1 [8] = target: T2, CXCR1; experiment: Wash-resistant inhibition of CXCL8-mediated calcium flux after inhibitor washout, CXCR1 RBL cells; type: cell-based; conditions: RBL cells stably transfected with CXCR1; 30 minutes incubation at 37°C with 0.4, 2, 10 µM, then washout; time points up to 12 h
Method: as §1, §2

neutrophils [9] = experiment: Murine air-pouch model of inflammation; type: in vivo; conditions: depending on the dose given
[10] = 5 µM, incubation at 37°C, LC-MS/MS detection
[11] = 37°C, 2 mM NADPH, pH 7.4, first-order decay model

## O=C(Nc1ccc(F)cc1)c1cnc(SCc2cc(OC(F)(F)F)ccc2B(O)O)nc1 [SX-682, 2-(2-Boronic acid-5-trifluoromethoxy-benzylsulfanyl)-pyrimidine-5-carboxylic acid (4-fluoro-phenyl)-amide]
CXCR2 [1]
  inhibition of CXCL8-mediated intracellular calcium flux sustained after washout: at least 12 hours
CXCR1 [2]
  IC50: 42 ± 3 nM
[3]
  IC50: 55 ± 6 nM
Neutrophils [4]
  influx of neutrophils into the lungs (BALF) as compared to control rats treated with vehicle only: significantly decreased the influx of neutrophils
Neutrophils [4]; SX-682 vs SX-576, each 1 mg/kg intravenously, ozone exposed rats
  inhibition of neutrophil chemotaxis, comparison of the two inhibitors tested: markedly more robust inhibition of neutrophil chemotaxis
Neutrophils [4]; single dose of 1 mg/kg intravenously, ozone exposed rats
  inhibition of neutrophil influx into the BALF sustained after a single dose: 24 h
CXCR2 [5]
  IC50: 20 ± 2 nM
[6]; 5 µM, incubation at 37°C, LC-MS/MS detection, read-out: t½
  half-life at 5 µM: 693 min
[7]
  fold larger half life than SX-671 or SX-576: 6 fold
[7]; 37°C, 2 mM NADPH, pH 7.4, first-order decay model, read-out: t½ (Half-life)
  half-life: 325 min
CXCR1 [8]
  inhibition of CXCL8-mediated intracellular calcium flux sustained after washout: at least 12 hours

## O=C(Nc1ccc(F)cc1)c1ccc(SCc2ccccc2B(O)O)nc1 [SX-517]
Neutrophils [9]
  activity on neutrophils in vivo: both inhibitory and agonist activity on neutrophils were achieved
[6]; [10]
  t½: 113 min
[6]; structural comparison with sulfur / F3CO-bearing cogeners
  fold reduction in plasma half-life: 5 fold
[7]; [11]
  t½ (Half-life): 405 min

## O=C(Nc1ccc(F)cc1)c1ccc(SCc2cc(OC(F)(F)F)ccc2B(O)O)nc1 [SX-576, reference compound]
Neutrophils [9]
  activity on neutrophils in vivo: both inhibitory and agonist activity on neutrophils were achieved
Neutrophils [4]
  influx of neutrophils into the lungs (BALF) as compared to control rats treated with vehicle only: significantly decreased the influx of neutrophils
[6]; [10]
  t½: 533 min
[7]; [11]
  t½ (Half-life): 50 min
